Data taken from paper PMC11648835 (Chemmedchem, 2024).
“Also recorded” adds a separate entry of the source.

Tests used:
[1] = tested on: Mtb-infected human THP-1 macrophages; format: cell-based, Mycobacterium tuberculosis
[2] = tested on: Mycobacterium tuberculosis mc^26206 (WT); format: cell-based
[3] = tested on: panel of bacteria consisting of S. aureus, E. faecium, E. coli, K. pneumoniae, A. baumannii and P. aeruginosa; format: cell-based
[4] = tested on: Mtb strain mc^26206 wild-type, hypoxic non-replicating; format: cell-based, Mycobacterium tuberculosis

For `COCOc1ccc2nc3ccc(=O)c(I)c-3oc2c1` [Compound 8h, 4‐Iodo‐7‐(methoxymethoxy)‐3H‐phenoxazin‐3‐one], the “intracellular anti-tuberculosis activity (in words)” value [1] was “intracellular TB killing”.
With `O=c1ccc2nc3ccc(O)cc3oc-2c1` [Compound 2, resorufin, reference compound] the “anti-tuberculosis activity against wild type Mtb (in words)” value [2] was “no anti‐tuberculosis activity; also recorded: inactive” and the “activity against a panel of bacteria (in words)” value [3] was “inactive”.
In the case of `O=c1ccc2nc3ccc(OCC4(CO)COC4)cc3oc-2c1` [Compound 6y, 7‐((3‐(Hydroxymethyl)oxetan‐3‐yl)methoxy)‐3H‐phenoxazin‐3‐one], the “anti-tuberculosis activity against wild type Mtb (in words)” value [2] is reported as “completely inactive”.
In the case of `O=c1ccc2nc3ccc(OCc4ccc([N+](=O)[O-])o4)cc3oc-2c1` [Compound 1, 7‐((5‐Nitrofuran‐2‐yl)methoxy)‐3H‐phenoxazin‐3‐one], the “intracellular anti-tuberculosis activity (in words)” value [1] is reported as “intracellular TB killing”, the “time-kill kinetic assay under hypoxia (in words)” value [4] is reported as “inactive” and the “activity against a panel of bacteria (in words)” value [3] is reported as “inactive”.
For `O=c1ccc2nc3ccc(OCc4ccccc4)cc3oc-2c1` [Compound 6g, 7‐(Benzyloxy)‐3H‐phenoxazin‐3‐one], the “anti-tuberculosis activity against wild type Mtb (in words)” value [2] was “no anti‐tuberculosis activity”.
In the case of `O=c1ccc2nc3ccc(OCc4ccc([N+](=O)[O-])cc4)cc3oc-2c1` [Compound 6b, 7‐((4‐Nitrobenzyl)oxy)‐3H‐phenoxazin‐3‐one], the “MIC90 Mtb WT” value [2] is reported as over 256 µM and the “anti-tuberculosis activity against wild type Mtb (in words)” value [2] is reported as “no anti‐tuberculosis activity”.
`COCCOc1ccc2nc3ccc(=O)cc-3oc2c1` [Compound 6i, 7‐(2‐Methoxyethoxy)‐3H‐phenoxazin‐3‐one] was tested, and the “intracellular Mtb survival” value [1] was “approximately 10%” and the “intracellular anti-tuberculosis activity (in words)” value [1] was “intracellular TB killing”.
In the case of `COc1ccc2nc3ccc(=O)cc-3oc2c1` [Compound 6j, 7‐Methoxy‐3H‐phenoxazin‐3‐one], the “time-kill kinetic assay under hypoxia (in words)” value [4] is reported as “inactive”.
In the case of `O=c1ccc2nc3ccc(OCCO)cc3oc-2c1` [Compound 6s, 7‐(2‐Hydroxyethoxy)‐3H‐phenoxazin‐3‐one], the “anti-tuberculosis activity against wild type Mtb (in words)” value [2] is reported as “completely inactive”.
